Assay results as given in patent US5326780A, “Imidazole derivatives having anti-HIV activity” (priority 1992, dated 1994).
In brackets after ≈: the same amount, converted by molar mass. Read-outs that look alike come from different tables or passages of the source.

Legend:
Format in all cases: cell-based
HIV (HTLV-IIIB strain) = experiment: Infection inhibitory test: anti-HIV activity, MT-4 cells infected with HIV, MTT; settings: Human immunodeficiency virus 1, IIIB, MT4, 120 h
Protocol: Anti-HIV activity and cytotoxicity are tested in the following manners.
(§1) (1) A human T cell MOLT-4 clone 8, a strain continuously infected with HIV (HTLV-IIIB strain), was incubated in RPMI-1640 medium containing 10% bovine fetus serum and the supernatant was isolated by filtration. After the determination of virus titer, the supernatant was stored at -80° C. A compound to be tested was diluted with the same medium to a given concentration and poured into 96-well microtiter plates by 100 μl/well. To the well is added 50 μl (2.5×10^4 cells) MT-4 cell suspensions, followed by the addition of 50 μl [600 pfu (plaque forming unit)] HIV-containing supernatant previously diluted with the same medium.
(§2) (2) After 5-day-incubation at 37° C. in a carbon dioxide incubator, 30 μl MTT {3-(4,5-diemthylthiazol-2-yl)-2,5-diphenyltetrazolium bromide), 5 mg/ml in PBS} was added to each well, and the incubation was continued for another 1 hour, during which surviving cells reduce MTT to precipitate folmazan.
(§3) The resultant folmazan was eluted by replacing 150 μl supernatant of a culture in each well by 150 μl solution comprising 10% triton X - 100 and isopropanol containing 0.4 v/v % HCl and shaking by means of a plate mixer. The resultant folmazan was assayed at 0D 540 nm, and the result was evaluated by comparison with that obtained in a control test.
IC50 is defined as a concentration of the compound (I) that gives a 50% inhibition against vital cytotoxicity.

[1] = Cytotoxicity, MT-4 cells without virus, MTT; settings: human
Protocol: as §1, §2, §3
(§4) Cytotoxicity of a compound (I) was evaluated in a similar manner as described in 1 above except that 50 μl of the same medium is added to each well in place of the HIV-containing supernatant (viral solurtion).
(§5) CC50 is defiend as a concentration of the compound (I) that gives 50% cytotoxicity.

MT-4 cell = experiment: Cytotoxicity, MT-4 cells without virus, MTT; settings: 50% cytotoxicity; MT-4 cells without virus, 5-day incubation, MTT
Protocol: as §1, §2, §3, §4, §5

[2] = 50% inhibition of viral cytotoxicity, MT-4 cells, 5-day incubation at 37 °C, MTT, read-out: IC50

SMILES | IC50 (HIV (HTLV-IIIB strain); [2]) [µg/mL] | CC50 at 120 h ([1]; mt-4 cells) [µg/mL] | IC50 (HIV (HTLV-IIIB strain)) [µg/mL] | CC50 (MT-4 cell) [µg/mL] | CC50 at 120 h ([1]; 50% cytotoxicity, MT-4 cells without virus, 5-day incubation, MTT, read-out: CC50) [µg/mL]
CCOCn1c(C)nc(Cc2cc(F)cc(F)c2)c1C(C)C [Compound I-93] | 0.06 (≈ 0.195 µM) | 12.5 to 25 (≈ 40.5 to 81.1 µM) | – | – | –
CCCc1ncn(COCc2ccccc2)c1Sc1ccccc1 [Compound I-9] | – | 12.5 to 25 (≈ 36.9 to 73.9 µM) | – | – | –
Cc1cn([C@H]2C[C@H](N=[N+]=[N-])[C@@H](CO)O2)c(=O)[nH]c1=O [AZT, azidodeoxythymidine, reference compound] | – | – | 0.005 to 0.01 (≈ 0.0187 to 0.0374 µM) | 25 (≈ 93.5 µM) | –
CCOCn1c(C)nc(CC)c1Sc1cc(C)cc(C)c1 [Compound I-15] | 0.063 to 0.12 (≈ 0.207 to 0.394 µM) | 10 to 20 (≈ 32.8 to 65.7 µM) | – | – | –
CCCc1nc(Br)n(COCc2ccccc2)c1Sc1ccccc1 [Compound I-13] | – | 12.5 to 25 (≈ 29.9 to 59.9 µM) | – | – | –
CCc1nc(C)n(COCc2ccccc2)c1Sc1ccccc1 [Compound I-1, 1-benzyloxymethyl-4-ethyl-2-methyl-5-phenylthioimidazole] | 0.03 to 0.06 (≈ 0.0886 to 0.177 µM) | – | – | – | –
CCc1ncn(COCc2ccccc2)c1Sc1ccccc1 [Compound I-4, 1-benzyloxymethyl-4-ethyl-5-phenylthioimidazole] | 0.13 to 0.25 (≈ 0.401 to 0.771 µM) | 12.5 to 25 (≈ 38.5 to 77.1 µM) | – | – | –
CC(C)=CCN1Cc2cc(Cl)cc3[nH]c(=S)n(c23)C[C@@H]1C [TIBO (R-82913), reference compound] | 0.13 to 0.25 (≈ 0.404 to 0.777 µM) | – | – | – | 12.5 to 25 (≈ 38.8 to 77.7 µM)
CCOCn1c(C)nc(C(C)C)c1Cc1cc(Cl)cc(Cl)c1 [Compound I-67] | 0.005 (≈ 0.0147 µM) | 6.25 to 12.5 (≈ 18.3 to 36.6 µM) | – | – | –
CCOCn1c(C)nc(C(C)C)c1Sc1ccccc1 [Compound I-18] | 0.016 (≈ 0.0551 µM) | 25 to 50 (≈ 86.1 to 172 µM) | – | – | –
Cc1nc(C(C)C)c(Sc2ccccc2)n1COCc1ccccc1 [Compound I-17] | 0.016 (≈ 0.0454 µM) | – | – | – | –
Cc1cc(C)cc(Cc2c(C(C)C)nc(C)n2COCc2ccccc2)c1 [Compound I-50] | 0.016 (≈ 0.0441 µM) | 6.25 to 12.5 (≈ 17.2 to 34.5 µM) | – | – | –
CCc1nc(Br)n(COCc2ccccc2)c1Sc1ccccc1 [Compound I-12] | 0.06 to 0.13 (≈ 0.149 to 0.322 µM) | 12.5 to 25 (≈ 31 to 62 µM) | – | – | –
CCOCn1c(C)nc(C(C)C)c1Cc1cccnc1 [Compound I-58] | 0.5 (≈ 1.83 µM) | > 100 | – | – | –
CCc1nc(C)n(COCc2ccccc2)c1Sc1cc(C)cc(C)c1 [Compound I-14] | 0.016 to 0.032 (≈ 0.0437 to 0.0873 µM) | 10 to 20 (≈ 27.3 to 54.6 µM) | – | – | –
CCOCn1c(C)nc(Cc2cc(Cl)cc(Cl)c2)c1C(C)C [Compound I-90] | 0.5 to 1 (≈ 1.47 to 2.93 µM) | 1 to 10 (≈ 2.93 to 29.3 µM) | – | – | –
Cc1nc(Cc2cc(Cl)cc(Cl)c2)c(C(C)C)n1COCc1ccccc1 [Compound I-91] | 0.5 to 1 (≈ 1.24 to 2.48 µM) | 10 to 100 (≈ 24.8 to 248 µM) | – | – | –
Cc1nc(C(C)C)c(Cc2ccccc2)n1COCc1ccccc1 [Compound I-42, 5-Benzyl-1-benzyloxymethyl-4-isopropyl-2-methylimidazole] | 0.016 (≈ 0.0478 µM) | 3.1 to 6.25 (≈ 9.27 to 18.7 µM) | – | – | –
Cc1cc(C)cc(Sc2c(C(C)C)nc(C)n2COCc2ccccc2)c1 [Compound I-16] | 0.016 to 0.031 (≈ 0.042 to 0.0815 µM) | – | – | – | –
CCc1nc(C)n(COCCO)c1Sc1cc(C)cc(C)c1 [Compound I-29, 5-(3,5-Dimethylphenylthio)-4-ethyl-1-[(2-hydroxyethoxy)-methyl]-2-methylimidazole] | 0.13 to 0.25 (≈ 0.406 to 0.78 µM) | 25 to 50 (≈ 78 to 156 µM) | – | – | –
c1ccc(COCn2cncc2Sc2ccccc2)cc1 [Compound I-5, 1-benzyloxymethyl-5-phenylthioimidazoe nitrate] | 0.13 to 0.25 | 12.5 to 25 | – | – | –
Cc1nc(Cc2cc(F)cc(F)c2)c(C(C)C)n1COCc1ccccc1 [Compound I-92] | 0.25 (≈ 0.675 µM) | 6.25 to 12.5 (≈ 16.9 to 33.7 µM) | – | – | –
Cc1nc(C(C)C)c(Cc2cc(F)cc(F)c2)n1COCc1ccccc1 [Compound I-69] | 0.003 (≈ 0.0081 µM) | 6.25 to 12.5 (≈ 16.9 to 33.7 µM) | – | – | –
